One assay has as its target T1, MMP-3 (Homo sapiens, UniProt P08254).
T1 construct: Truncated Prostromelysin-257 was expressed in a soluble form in E.coli; made in house; host or cells: E. coli
Briefly: Primary Thiopeptilide MMP-3 Inhibition Assay. To be noted: for IC50: pH 6.5, 13 nM stromelysin, x (n) = average of n determinations, read-out: MMP-3 Thiopep. IC50; for inhibition at 5 µM: read-out: MMP-3 Thiopep. % inhibition. Type of assay: biochemical.

For a further assay, the target named is T2, MMP-9 (Homo sapiens, UniProt P14780).
T2 construct: from tissue; host or cells: human polymorphonuclear leukocytes (PMN) from whole blood (New York Blood Center), PMA-stimulated supernatant
Description: Thiopeptilide MMP-9 Inhibition Assay. Type of assay: biochemical. The conditions noted are these: for IC50: pH 6.5, x (n) = average of n determinations, read-out: MMP-9: Thiopep. IC50; for inhibition at 5 µM: read-out: MMP-9: Thiopep. % inhibition.

Structures can show the parent of a compound that is named as a salt.

This note sets out measurements from patent US5789434A, “Derivatives of substituted 4-biarylbutyric acid as matrix metalloprotease inhibitors” (priority 1995, dated 1998).

T2 sequence (P14780 107-707 limits assumed): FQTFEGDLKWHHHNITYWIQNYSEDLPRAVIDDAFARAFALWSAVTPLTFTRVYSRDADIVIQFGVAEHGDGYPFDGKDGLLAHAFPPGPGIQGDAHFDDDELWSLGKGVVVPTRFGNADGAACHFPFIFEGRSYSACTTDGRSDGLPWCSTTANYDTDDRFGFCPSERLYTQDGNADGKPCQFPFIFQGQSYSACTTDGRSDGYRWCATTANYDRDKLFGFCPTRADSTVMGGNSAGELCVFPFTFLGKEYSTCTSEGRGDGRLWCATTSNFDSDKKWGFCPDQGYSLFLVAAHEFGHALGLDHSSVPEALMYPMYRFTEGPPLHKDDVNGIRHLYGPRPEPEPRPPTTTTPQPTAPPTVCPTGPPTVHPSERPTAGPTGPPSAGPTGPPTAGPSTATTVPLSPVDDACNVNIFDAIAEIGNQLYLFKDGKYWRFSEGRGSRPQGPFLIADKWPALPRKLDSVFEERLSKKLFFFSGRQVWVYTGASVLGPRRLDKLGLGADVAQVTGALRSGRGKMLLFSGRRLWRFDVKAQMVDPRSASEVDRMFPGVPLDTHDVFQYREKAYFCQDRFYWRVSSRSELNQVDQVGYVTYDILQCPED
T1 sequence (P08254 100-274 limits assumed): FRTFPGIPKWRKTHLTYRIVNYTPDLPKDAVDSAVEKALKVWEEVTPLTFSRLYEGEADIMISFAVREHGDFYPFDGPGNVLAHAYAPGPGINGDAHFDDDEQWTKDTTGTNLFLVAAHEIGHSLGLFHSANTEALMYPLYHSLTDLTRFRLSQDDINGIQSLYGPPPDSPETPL
Description for MMP-3: Enzyme: recombinant stromelysin expressed in E.coli and purified as described above. […] The protocols for the assay of compounds as stromelysin inhibitors was the same as that used for MMP-9 except that the assay buffer was 50 mM MES, pH 6.5 containing 150 mM NaCl, 10 mM CaCl2, 0.005% Brij, and 1% DMSO.

For the compound `O=C(O)CCC(=O)c1ccc(-c2ccc(Br)cc2)cc1` [Example 7, [1,1'-Biphenyl]-4-butanoic acid, 4'-bromo-γ-oxo-, reference compound], the concentration for half-maximal inhibition (IC50) at MMP-3 was determined as 690 nM; at MMP-9, 2100 nM.

On to `O=C(c1ccc(-c2ccc(Cl)cc2)cc1)[C@H]1CC[C@H]1C(=O)O` (relative stereo) [Example 290, Cyclobutanecarboxylic acid, 2-[(4'-chloro[1,1'-biphenyl]-4-yl)carbonyl]-, cis-], for which the inhibition at 5 µM on MMP-3 (at 5 μM) was 35%; at MMP-9, 15%.

On to `O=C(CC(CCCc1ccccc1)C(=O)O)c1ccc(-c2ccc(I)cc2)cc1` (stereo not drawn) [Example 40, [1,1'-Biphenyl]-4-butanoic acid, 4'-iodo-γ-oxo-α-(3-phenylpropyl)-], for which the IC50 was 121 nM at MMP-3 and 50 nM on MMP-9.

With `O=C(CC(SCc1ccccc1)C(=O)O)c1ccc(-c2ccc(Cl)cc2)cc1` (stereo not drawn) [Example 252, [1,1'-Biphenyl]-4-butanoic acid, 4'-chloro-γ-oxo-α-[(phenylmethyl)thio]-], the concentration for half-maximal inhibition (IC50) at MMP-3 stood at 293 nM; on MMP-9, 2900 nM.

As for `COc1ccc(CCC(CC(=O)c2ccc(-c3ccc(Cl)cc3)cc2)C(=O)O)cc1` (stereo not drawn) [Example 187, [1,1'-Biphenyl]-4-butanoic acid, 4'-chloro-α-[2-(4-methoxyphenyl)ethyl]-γ-oxo-], the IC50 at MMP-3 was 757 nM; at MMP-9 it was 1500 nM.

As to `O=C(CC(CCOCc1ccccc1)C(=O)O)c1ccc(-c2ccc(Cl)cc2)cc1` (stereo not drawn) [Example 190, [1,1'-Biphenyl]-4-butanoic acid, 4'-chloro-γ-oxo-α-[2-(phenylmethoxy)ethyl]-], the results for the half-inhibitory concentration (IC50) at MMP-3 and on MMP-9 were 227 nM and 215 nM, respectively.

In the case of `CC(C)CC1CC(c2ccc(-c3ccc(Cl)cc3)cc2)OC1=O` (stereo not drawn) [Example 36, 2(3H)-Furanone, 5-(4'-chloro[1,1'-biphenyl]-4-yl)dihydro-3-(2-methylpropyl)-, reference compound], at MMP-3 (at 5 μM), the “MMP-3 Thiopep. % inhibition” value was 0%. Also, the inhibition at 5 µM on MMP-9 is 0%.

As for `O=C(CC(CCCc1ccccc1)C(=O)O)c1ccc(-c2ccc(Cl)cc2Cl)cc1` (stereo not drawn) [Example 77, [1,1'-Biphenyl]-4-butanoic acid, 2',4'-dichloro-γ-oxo-α-(3-phenylpropyl)-], the values for the inhibition at 5 µM at MMP-3 (at 5 μM) and at MMP-9 were 24% and 7%, respectively.

For `O=C(CC(CSC1CCCCC1)C(=O)O)c1ccc(-c2ccc(Cl)cc2)cc1` (stereo not drawn) [Example 214, [1,1'-Biphenyl]-4-butanoic acid, 4'-chloro-α-[(cyclohexylthio)methyl]-γ-oxo-], the IC50 on MMP-3 amounted to 170 nM; at MMP-9 it was 2200 nM.

Consider `CC1=C(C)C[C@@H](C(=O)c2ccc(-c3ccc(Cl)cc3)cc2)[C@H](C(=O)O)C1` (relative stereo) [Example 327, 3-Cyclohexene-1-carboxylic acid, 6-[(4'-chloro[1,1'-biphenyl]-4-yl)carbonyl]-3,4-dimethyl-, trans-], for which the inhibition at 5 µM at MMP-3 (at 5 μM) worked out at 55%. In addition, the IC50 on MMP-9 amounted to 12000 nM.

Take `O=C(CC(CSc1ccc(Cl)c(Cl)c1)C(=O)O)c1ccc(-c2ccc(Cl)cc2)cc1` (stereo not drawn) [Example 216, [1,1'-Biphenyl]-4-butanoic acid, 4'-chloro-α-[[(3,4-dichlorophenyl)thio]methyl]-γ-oxo-]: the concentration for half-maximal inhibition (IC50) on MMP-3 amounted to 770 nM; at MMP-9 it was 590 nM.

Consider `N#Cc1ccc(-c2ccc(C(=O)CC(CCCc3ccccc3)C(=O)O)cc2)cc1` (stereo not drawn) [Example 56, [1,1'-Biphenyl]-4-butanoic acid, 4'-cyano-γ-oxo-α-(3-phenylpropyl)-], for which the IC50 is 310 nM at MMP-3 and 700 nM at MMP-9.

For `O=C(CC(CSc1cccc(Br)c1)C(=O)O)c1ccc(-c2ccc(Cl)cc2)cc1` (stereo not drawn) [Example 228, [1,1'-Biphenyl]-4-butanoic acid, α-[[(3-bromophenyl)thio]methyl]-4'-chloro-γ-oxo-], the IC50 stood at 360 nM at MMP-3 and 800 nM at MMP-9.

Consider `O=C(O)CCC(=O)c1ccc(-c2cccc(Cl)c2)cc1` [Example 12, [1,1'-Biphenyl]-4-butanoic acid, 3'-chloro-γ-oxo-, reference compound], for which the inhibition at 5 µM at MMP-3 (at 5 μM) stood at 17%; on MMP-9, 0%.

`CN(C)CCC(CC(=O)c1ccc(-c2ccc(Cl)cc2)cc1)C(=O)O` (stereo not drawn) [Example 263, [1,1'-Biphenyl]-4-butanoic acid, 4'-chloro-α-[2-(dimethylamino)ethyl]-γ-oxo-, hydrochloride]: the inhibition at 5 µM on MMP-3 (at 5 μM) worked out at 33%; on MMP-9, 21%.

In the case of `CC(C)CC(CC(=O)c1ccc(-c2ccc(F)cc2F)cc1)C(=O)O` (stereo not drawn) [Example 20, [1,1'-Biphenyl]-4-butanoic acid, 2',4'-difluoro-α-(2-methylpropyl)-γ-oxo-], the inhibition at 5 µM at MMP-3 (at 5 μM) was determined as 32%; on MMP-9, 34%.

As to `O=C(O)CCC1(C(=O)c2ccc(-c3ccc(Cl)cc3)cc2)CCCC1` [Example 340, Cyclopentanepropanoic acid, 1-[(4'-chloro[1,1'-biphenyl]-4-yl)carbonyl]-], the inhibition at 5 µM at MMP-3 (at 5 μM) worked out at 14%; on MMP-9 it was 21%.

Turning to `O=C(CC(CSc1ccncc1)C(=O)O)c1ccc(-c2ccc(Cl)cc2)cc1` (stereo not drawn) [Example 222, [1,1'-Biphenyl]-4-butanoic acid, 4'-chloro-γ-oxo-α-[(4-pyridinylthio)methyl]-], the IC50 on MMP-3 was 610 nM; at MMP-9, 1800 nM.

Regarding `CCCOc1ccc(-c2ccc(C(=O)CC(CCCc3ccccc3)C(=O)O)cc2)cc1` (stereo not drawn) [Example 84, [1,1'-Biphenyl]-4-butanoic acid, γ-oxo-α-(3-phenylpropyl)-4'-propoxy-], the IC50 at MMP-3 is 150 nM; at MMP-9, 100 nM.

For the compound `O=C(CC(CSc1cccc(F)c1)C(=O)O)c1ccc(-c2ccc(Cl)cc2)cc1` (stereo not drawn) [Example 243, [1,1'-Biphenyl]-4-butanoic acid, 4'-chloro-α[[(3-fluorophenyl)thio]methyl]-γ-oxo-], the IC50 on MMP-3 amounted to 360 nM; at MMP-9 it was 850 nM.

On to `C=C(CC(=O)c1ccc(-c2ccc(Cl)cc2)cc1)C(=O)O` [Example 23, [1,1'-Biphenyl]-4-butanoic acid, 4'-chloro-α-methylene-γ-oxo-, reference compound], for which the inhibition at 5 µM on MMP-3 (at 5 μM) is 24%; at MMP-9, 0%.

Consider `O=C(CC(CCCc1ccccc1)C(=O)O)c1ccc(-c2ccsc2)cc1` (stereo not drawn) [Example 76, Benzenepentanoic acid, α-[2-oxo-2-[4-(3-thienyl)phenyl]ethyl]-], for which the IC50 at MMP-3 amounted to 1000 nM; on MMP-9 it was 1800 nM.

As for `C[C@@H](C(=O)O)[C@@H](C)C(=O)c1ccc(-c2ccc(Cl)cc2)cc1` (relative stereo) [Example 283, [1,1'-Biphenyl]-4-butanoic acid, 4'-chloro-α,β-dimethyl-γ-oxo-, (R*,R*)-], the 50% inhibitory concentration (IC50) at MMP-3 is 2400 nM; at MMP-9, 7000 nM.

In the case of `O=C(CC(CSc1cccc(Cl)c1)C(=O)O)c1ccc(-c2ccc(Cl)cc2)cc1` (stereo not drawn) [Example 242, [1,1'-Biphenyl]-4-butanoic acid, 4'-chloro-α-[[(3-chlorophenyl)thio]methyl]-γ-oxo-], the IC50 on MMP-3 stood at 490 nM; at MMP-9, 1300 nM.

Consider `O=C(O)[C@H]1C2CCC(CC2)[C@@H]1C(=O)c1ccc(-c2ccc(Cl)cc2)cc1` (relative stereo) [Example 331, Bicyclo[2.2.2]octane-2-carboxylic acid, 3-[(4'-chloro[1,1'-biphenyl]-4-yl)carbonyl]-, trans-], for which the inhibition at 5 µM at MMP-3 (at 5 μM) was 15%; on MMP-9, 18%.

With `O=C(CC(CCCc1ccccc1)C(=O)O)c1ccc(-c2ccc(Cl)c(Cl)c2)cc1` (stereo not drawn) [Example 65, [1,1'-Biphenyl]-4-butanoic acid, 3',4'-dichloro-γ-oxo-α-(3-phenylpropyl)-], the IC50 on MMP-3 is 840 nM. The inhibition at 5 µM on MMP-9 was found to be 47%.

Consider `CCC(CC(=O)c1ccc(-c2ccc(Cl)cc2)cc1)C(=O)O` (stereo not drawn) [Example 117, [1,1'-Biphenyl]-4-butanoic acid, 4'-chloro-α-ethyl-γ-oxo-], for which the IC50 at MMP-3 was 590 nM; at MMP-9, 3800 nM.

`CC(C)CC(CCC(=O)c1ccc(-c2ccc(Cl)cc2)cc1)C(=O)O` (stereo not drawn) [Example 338, [1,1'-Biphenyl]-4-pentanoic acid, 4'-chloro-α-(2-methylpropyl)-δ-oxo-]: the inhibition at 5 µM at MMP-3 (at 5 μM) was 24%; at MMP-9, 32%.

Take `Nc1ccc(-c2ccc(C(=O)CC(CCc3ccccc3)C(=O)O)cc2)cc1` (stereo not drawn) [Example 136, [1,1'-Biphenyl]-4-butanoic acid, 4'-amino-γ-oxo-α-(2-phenylethyl)-]: the IC50 on MMP-3 was 1600 nM. In addition, the inhibition at 5 µM on MMP-9 is 50%.

Regarding `C=C(CC(O)c1ccc(-c2ccc(Cl)cc2)cc1)C(=O)O` (stereo not drawn) [Example 38, [1,1'-Biphenyl]-4-butanoic acid, 4'-chloro-γ-hydroxy-α-methylene-, reference compound], the IC50 on MMP-3 was found to be 10000 nM. Besides, the inhibition at 5 µM on MMP-9 came out at 10%.

In the case of `O=C(O)CCc1ccc(SCC(CC(=O)c2ccc(-c3ccc(Cl)cc3)cc2)C(=O)O)cc1` (stereo not drawn) [Example 225, [1,1'-Biphenyl]-4-butanoic acid, α-[[[4-(2-carboxyethyl)phenyl]thio]methyl]-4'-chloro--γ-oxo-], the figures for the IC50 at MMP-3 and at MMP-9 were 310 nM and 550 nM, respectively.

On to `C=C(CC(=O)O)C(=O)c1ccc(-c2ccc(Cl)cc2)cc1` [Example 32, [1,1'-Biphenyl]-4-butanoic acid, 4'-chloro-β-methylene-γ-oxo-, reference compound], for which the inhibition at 5 µM at MMP-3 (at 5 μM) was found to be 58%. Besides, the IC50 at MMP-9 came out at 6000 nM.

On to `Cc1ccccc1S[C@H]1CC[C@H](C(=O)c2ccc(-c3ccc(Cl)cc3)cc2)[C@H]1C(=O)O` (relative stereo) [Example 306, Cyclopentanecarboxylic acid, 2-[(4'-chloro[1,1'-biphenyl]-4-yl)carbonyl]-5-[(2-methylphenyl)thio]-, (1α,2β,5α)-], for which the figures for the IC50 at MMP-3 and at MMP-9 were 150 nM and 550 nM, respectively.
